# Results taken from patent US7297689B2, “Method for preparing peritoneal dialysate” (Tokai University Educational System, priority 1998, dated 2007).
# “Also recorded” adds a separate entry of the source. Where two headings read alike, the source gives them in different places.
# Experiments:
# VEGF mRNA [1] = experiment: VEGF mRNA expression in cultured rat mesothelial cells (semiquantitative RT-PCR); type: cell-based; conditions: 3 hours
# Description: Peritoneum was obtained from 6-week-old male CD (SD) IGS rats (Charles-River, Kanagawa, Japan). Mesothelial cells were isolated based on the method of Hjelle et al. (Hjelle J T et al., Perit Dial Int, 9: 341-347 (1989)) and cultured in Dulbecco's modified Eagle's medium (DMEM) containing 10% fetal bovine serum. The mesothelial cells at passage 7 to 10 were cultured for 3 hours in a CO2 incubator in the presence of various concentrations of glucose degradation products (glyoxal, methylglyoxal (Sigma, St. Louis, Mo.), or 3-deoxyglucosone (kindly provided from Fuji Memorial Research Institute, Otsuka Pharmaceutical Co., Kyoto, Japan). The expression of VEGF mRNA was analyzed by semiquantitative RT-PCR. Total RNA was isolated from the mesothelial cells using Rneasy Mini Kit (Qiagen, Germany). Five micrograms of the RNA was reverse-transcribed using oligo(dT)12-18 primers (Gibco BRL, Gaithersburg, Md.) with 200 units of RNase H-free reverse transcriptase (Superscript II: Gibco BRL) and PCR amplification was performed as described previously (Miyata T et al., J Clin Invest, 93: 521-528 (1994)). The sequences of the primers used for the amplification of rat VEGF were 5′-[…]-3′ (SEQ ID NO: 1) and 5′-[…]-3′ (SEQ ID NO: 2). The amplified product was 310 bp long. The primers used for the amplification of rat glyceraldehyde-3-phosphate dehydrogenase. (G3PDH) were 5′-[…]-3′ (SEQ ID NO: 3) and 5′-[…]-3′ (SEQ ID NO: 4) and amplified a 322 bp fragment. The G3PDH served as an internal RNA control to allow comparison of RNA levels among different specimens. […] PCR products resolved by electrophoresis in 1.5% agarose gel and stained with ethidium bromide were quantified by measuring the signal intensity with a quantification program (NIH image). […] Messenger RNA was determined in triplicate and the results were averaged for each experiment. […] The results were averaged and expressed as mean±S.D. The statistical significance was evaluated by analysis of variance (ANOVA). […]
# [2] = generation of pentosidine on incubation of peritoneal dialysis effluent; parameters: species or system human; conditions: peritoneal dialysis effluent, 0, 1, 10, 100 mM, 37° C.
# Description: An effluent from a peritoneal-dialysis patient, which had been kept overnight, was centrifuged, and the resulting supernatant was sterilized by filtration (pore size; 0.45 μm). Aminoguanidine (Tokyo Kasei Kogyo Co.) was added to the fluid at a final concentration of 0, 1, 10, or 100 mM. The mixture was incubated at 37° C. The incubation period was […] when assaying pentosidine, and 2 weeks when assaying protein carbonyl. The quantitative assay for pentosidine was performed using HPLC (SHIMADZU Co.; LC-10A) after the hydrolysis of proteins in 6 N HCl at 110° C. (T. Miyata et al., 1996, J. Am. Soc. Nephrol, 7:1198-1206; T. Miyata et al., 1996, Proc. Natl. Acad. Aci. USA, 93:2353-2358). The quantitative determination of protein carbonyl was carried out by measuring the absorbance (Nippon Molecular Devices Co.; SPECTRAmax 250) of hydrazone generated by the reaction of a carbonyl group after incubation with 2,4-dinitrophenylhydrazine (2,4-DNPH; Wako Pure Chemical Industries, Ltd.) (Levine, R. L. et al., Methods Enzymol., 233, 346-357 (1994)).
# [3] = amount of carbonyl compounds other than glucose in peritoneal dialysate (CAPD) effluent, 2,4-DNPH assay; parameters: species or system human; conditions: effluent, 0, 10, 50, 250 mM, unincubated and incubated (37° C. for 15 hours)
# Description: The peritoneal dialysate effluent was recovered from the patient and filtered with a filter with a pore size of 0.45 μm. Aminoguanidine (Tokyo Kasei Kogyo Co.) was added to the fluid at a concentration of 0, 10, 50, or 250 mM to prepare a sample solution. An aliquot (1 ml) of the sample solution was added into a plastic tube with a screw cap, and the tube was incubated at 37° C. for 15 hours. The sample solutions were stored at −30° C. prior to the incubation.
# Each of 400-μl aliquots of sample solutions was mixed with a 400-μl solution of 0.5 N hydrochloric acid containing 1.5 mM 2,4-DNPH (Wako Pure Chemical Industries, Ltd.), and then, the mixture was stirred at room temperature for 30 minutes to react the carbonyl compound with 2,4-DNPH. […] The aqueous layer was recovered and the absorbance thereof was measured at 360 nm in a spectrophotometric microplate reader (Nippon Molecular Devices Co.; SPECTRAmax250).
# Aqueous solutions of various glucose concentrations were prepared and the amounts of carbonyl compounds derived from glucose were measured by the same method as described in (i); a calibration curve of glucose concentration vs. concentration of carbonyl compound was prepared based on this experiment.
# Respective glucose concentrations of the samples were determined by using a glucose assay kit (Wako Pure Chemical Industries, Ltd.; Glucose CII-Test Wako). […]
# [4] = generation of 5-HMF in peritoneal dialysate during heat sterilization (HPLC); conditions: sterilization 121° C.
# Source text: (§1) Peritoneal dialysates contain a high concentration of glucose as an osmoregulatory agent (1.35-4.0 w/v %). Glucose is unstable to heating and undergoes degradation during heat sterilization or storage. Degradation products of glucose have been reported to include 5-hydroxymethylfurfural (5-HMF), levulinic acid, and acetaldehyde (Richard, J. U. et al., Fund. Appl. Toxic., 4: 843-853 (1984), Nilsson, C. B. et al., Perit. Dial. Int., 13: 208-213 (1993)). The inventors tested aminoguanidine for its inhibiting effect on the generation of carbonyl compounds during heat sterilization of a peritoneal dialysate, by monitoring the quantities of 5-HMF and carbonyl compounds. Since the degree of glucose degradation is affected by pH of the solution, two peritoneal dialysates of acidic pH (pH 5.3) and neutral pH (pH 7.0) were prepared to carry out the experiment. Sterilization temperature was 121° C.
# 5-HMF was assayed by high performance liquid chromatography (SHIMADZU Co.; LC-10A) (Nilsson, C. B. et al., Perit. Dial. Int., 13: 208-213 (1993)).
# [5] = generation of carbonyl compounds in peritoneal dialysate during heat sterilization (2,4-DNPH); conditions: acidic and neutral pH, sterilization 121° C.
# Source text: as §1
# Quantification of carbonyl compounds in the peritoneal dialysate was carried out in the same manner as described in Example 1 by measuring the absorbance after the reaction with 2,4-DNPH (Levine, R. L. et al., Methods Enzymol., 233: 346-357 (1994)). Sterilization temperature was 121° C.
# [6] = trapping of methylglyoxal by guanidine, aminoguanidine and biguanide agents; conditions: 0.1 M phosphate buffer pH 7.4, 37° C., agent 50 μl of 30 mM
# Description: (§2) A mixture (50 μl) of glyoxal, methylglyoxal, and 3-deoxyglucosone (1 mM each) was further mixed with 400 μl of 0.1 M phosphate buffer (pH 7.4), and each (50 μl; 30 mM) of guanidine, aminoguanidine, or a biguanide agent. The resulting mixture was incubated at 37° C. Biguanide agents used were metformin, buformin, and phenformin. After the incubation, glyoxal, methylglyoxal, and 3-deoxyglucosone were converted to quinoxaline derivatives by using o-phenylenediamine, and then the respective concentrations were determined by high performance liquid chromatography.
# [7] = trapping of 3-deoxyglucosone by guanidine, aminoguanidine and biguanide agents; conditions: 0.1 M phosphate buffer pH 7.4, 37° C., agent 50 μl of 30 mM
# Description: as §2
# [8] = subcutaneously administered, rat; cited from earlier work
# [9] = subcutaneously administered, mouse; cited from earlier work
# [10] = trapping of glyoxal by albumin; conditions: 0.1 M phosphate buffer pH 7.4, 37° C., 50 μl of 100 mg/ml
# Description: (§3) A solution (50 μl) consisting of glyoxal, methylglyoxal, and 3-deoxyglucosone (1 mM each) was further mixed with 400 μl of 0.1 M phosphate buffer (pH 7.4), 50 μl of 100 mg/ml bovine serum albumin solution, and the resulting mixture was incubated at 37° C. After the incubation, glyoxal, methylglyoxal, and 3-deoxyglucosone were converted to quinoxaline derivatives by using o-phenylenediamine, and then the respective concentrations were determined by high performance liquid chromatography.
# [11] = trapping of methylglyoxal by albumin; conditions: 0.1 M phosphate buffer pH 7.4, 37° C., 50 μl of 100 mg/ml
# Description: as §3
# VEGF protein = VEGF protein release into culture supernatant (ELISA); type: cell-based; conditions: human microvascular endothelial cells, 0, 200, 400 μM, 24 hours
# Description: The release of VEGF protein into the culture supernatant was measured by ELISA for […] cultured for 24 hours in the presence of various concentrations of methylglyoxal. Human microvascular endothelial cells were purchased from Kurabo (Osaka, Japan) and cultured in VEGF-depleted EGM-2 medium (Takara, Tokyo, Japan). The cells were incubated with methylglyoxal in the same manner as rat peritoneum mesothelial cells. The VEGF protein in the culture supernatant prepared in duplicate was quantified by enzyme-linked immunosorbent assay (ELISA) using a kit (Quantikine: R&D Systems, Minneapolis, USA) according to the attached manual. The experiment was repeated three times. The results were statistically analyzed as described above.
# VEGF mRNA [12] = experiment: VEGF mRNA expression in human endothelial cells (RT-PCR); type: cell-based; conditions: 0 to 400 μM
# Description: VEGF mRNA expression was then assessed in endothelial cells cultured in the presence of various concentrations (0 to 400 μM) of methylglyoxal. Experiments were performed as those for rat mesothelial cells. However, primers used for human VEGF amplification were 5′-[…]-3′ (SEQ ID NO: 5) and 5′-[…]-3′ (SEQ ID NO: 6). The amplified fragment was 271 bp long. The same primers were used for human and rat G3PDH amplifications.
# VEGF mRNA [13] = experiment: VEGF mRNA expression and histology of peritoneal tissue of rats given daily intraperitoneal injections; type: in vivo, rat; conditions: daily intraperitoneal injection for 10 days
# Description: To further assess the biological effects of methylglyoxal on VEGF mRNA expression in the peritoneum in vivo, rats were given various amounts of methylglyoxal into their peritoneal cavity for 10 days. Six-week-old male CD (SD) IGS rats were given a daily intraperitoneal injection of 50 ml/kg of a saline solution containing various concentrations of methylglyoxal for 10 days. Peritoneum was isolated from the parietal walls and investigated for VEGF mRNA expression. Experiments were performed as the above-mentioned in vitro experiments for rat mesothelial cells. However, mRNA was extracted from peritoneal tissues with ISOGEN (Nippon Gene, Tokyo, Japan). In addition, PCR amplification was performed for 28 cycles for VEGF mRNA and for 16 cycles for G3PDH mRNA.
compound,measurement,setting,value
O=CC=O [glyoxal],VEGF mRNA expression,VEGF mRNA [1]; 0 to 400 μM,neither glyoxal nor 3-deoxyglucosone modified VEGF expression
N=C(N)NN [aminoguanidine],generation of pentosidine,[2],inhibit the generation of pentosidine in a concentration-dependent manner
same,amounts of carbonyl compounds other than glucose,[3],decreased
same,generation of 5-HMF,[4]; peritoneal dialysate acidic pH (pH 5.3),effectively inhibited the generation of 5-HMF in a concentration-dependent manner
same,generation of 5-HMF,[4]; peritoneal dialysate neutral pH (pH 7.0),effectively inhibited the generation of 5-HMF in a concentration-dependent manner
same,generation of carbonyl compounds,[5],effectively inhibited the generation of carbonyl compounds in a concentration-dependent manner
same,concentration of methylglyoxal,[6],markedly reducing the concentration of methylglyoxal; also recorded: drastically reduced the concentration of methylglyoxal
same,concentration of 3-deoxyglucosone,[7],markedly reducing the concentration of 3-deoxyglucosone
same,half-lethal dose,[8],1258 mg/kg
same,half-lethal dose,[9],963 mg/kg
O=CC(=O)C[C@H](O)[C@H](O)CO [3-deoxyglucosone],VEGF mRNA expression,VEGF mRNA [1]; 0 to 400 μM,neither glyoxal nor 3-deoxyglucosone modified VEGF expression
"Bovine serum albumin: bovine serum albumin solution, 100 mg/ml; SH group-containing protein",concentration of glyoxal,[10],markedly reducing the concentrations of glyoxal and methylglyoxal
same,concentration of methylglyoxal,[11],markedly reducing the concentrations of glyoxal and methylglyoxal
CC(=O)C=O [methylglyoxal],VEGF mRNA expression,"VEGF mRNA [1]; 400 μM, P<0.0005",stimulated VEGF mRNA expression
same,VEGF protein released into culture supernatant,VEGF protein,dose-dependent increase of VEGF
same,VEGF mRNA expression,VEGF mRNA [12],rose in a dose-dependent manner
same,peritoneal tissue on optical microscopy,VEGF mRNA [13],unaffected
same,VEGF mRNA expression in parietal peritoneum,VEGF mRNA [13]; P<0.05,increased significantly
"N=C(N)N [Guanidine, guanidine]",concentration of methylglyoxal,[6],markedly reducing the concentration of methylglyoxal
